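Grown in 96-well plates, cells were treated for 48 hours with each compound at five concentrations. Insufficient inhibition: endpoint recorded as highest concentration tested. TGI: concentration producing complete growth inhibition.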
Tests used:
Assay in all cases: growth of human tumour cells (NCI), 48 h
ACHN renal = tested on: ACHN renal
SK-MEL-5 melanoma = tested on: SK-MEL-5 melanoma
K-562 leukemia = tested on: K-562 leukemia
HCC-2998 colon = tested on: HCC-2998 colon
SF-539 CNS = tested on: SF-539 CNS
IGROV1 ovarian = tested on: IGROV1 ovarian
SNB-19 CNS = tested on: SNB-19 CNS
SF-268 CNS = tested on: SF-268 CNS
COLO 205 colon = tested on: COLO 205 colon
MCF7 breast = tested on: MCF7 breast
MDA-MB-231 breast = tested on: MDA-MB-231 breast
HS 578T breast = tested on: HS 578T breast

| SMILES | TGI (ACHN renal) | TGI (SK-MEL-5 melanoma) | TGI (K-562 leukemia) | TGI (HCC-2998 colon) | TGI (SF-539 CNS) | TGI (IGROV1 ovarian) | TGI (SNB-19 CNS) | TGI (SF-268 CNS) | TGI (COLO 205 colon) | TGI (MCF7 breast) | TGI (MDA-MB-231 breast) | TGI (HS 578T breast) |
| --- | --- | --- | --- | --- | --- | --- | --- | --- | --- | --- | --- | --- |
| O=C(NCc1ccccc1)C1C(=O)C(=O)N(Cc2ccccc2)C1=O (stereo not drawn) | > 100 µM | > 100 µM | > 100 µM | > 100 µM | > 100 µM | > 100 µM | > 100 µM | > 100 µM | > 100 µM |  |  |  |
| CC1OC(CC2C=CCc3c(O)c4c(c(O)c32)C(=O)c2ccccc2C4=O)CC(NC(=O)C(F)(F)F)C1O (stereo not drawn) | 25.1 µM | 27.3 µM | 20.6 µM | > 100 µM | 15 µM | 44.6 µM | 18.7 µM | 22.2 µM | 53.4 µM |  |  |  |
| CCN1C/C(=C\c2ccc(Cl)cc2)c2[nH]c(=O)c(C#N)c(-c3ccc(Cl)cc3)c2C1 | > 100 µM | > 100 µM | > 100 µM | > 100 µM | > 100 µM | > 100 µM | > 100 µM | > 100 µM | > 100 µM | > 100 µM | > 100 µM |  |
| CC1=NNC(=O)C1C1C=C(c2c[nH]c3ccccc23)OC1=O (stereo not drawn) | > 100 µM | > 100 µM | > 100 µM |  | > 100 µM | > 100 µM | > 100 µM | > 100 µM | > 100 µM |  | > 100 µM | > 100 µM |
| O=C(O)CCC(NC(=O)c1ccc(CNc2nc3cc(C(F)(F)F)ccc3nc2C(=O)O)cc1)C(=O)O (stereo not drawn) | > 100 µM |  | > 100 µM | > 100 µM | > 100 µM | > 100 µM | > 100 µM | > 100 µM | > 100 µM |  |  |  |
| N#CCC(=O)Nc1ccccc1O | > 100 µM | > 100 µM | > 100 µM | > 100 µM | > 100 µM | > 100 µM | > 100 µM | > 100 µM | > 100 µM |  |  |  |
| COC(=O)C(C#N)C1NC(=O)c2ccccc21 (stereo not drawn) | > 100 µM | > 100 µM | > 100 µM | > 100 µM | > 100 µM | > 100 µM | > 100 µM | > 100 µM | > 100 µM |  |  |  |
| COc1cc2c(cc1OC)[C@H]1C(COC(=O)Nc3ccccc3)CN1CC2 (stereo partly drawn) | > 100 µM | > 100 µM | > 100 µM | > 100 µM | > 100 µM | > 100 µM | > 100 µM | > 100 µM | > 100 µM |  |  |  |
| N[C@H]1CCN(c2c(F)cc3c(=O)c(C(=O)O)cn4c3c2Oc2c-4ccc3c2ccc2ccccc23)C1 | > 24.4 µM | > 100 µM |  |  | > 100 µM | > 48.8 µM | > 100 µM |  | > 100 µM | > 100 µM | > 100 µM |  |
| CCC(=O)CCC1=Nc2nnc(CCCCc3nnc4n3C(=O)C(CCC(=O)CC)=N4)n2C1=O | > 100 µM |  | > 100 µM | > 100 µM | > 100 µM | > 100 µM | > 100 µM | > 100 µM | > 100 µM |  |  |  |
| CC(O)C1OC(n2ccc(=O)[nH]c2=O)CC1n1cncn1 (stereo not drawn) | > 100 µM | > 100 µM | > 100 µM | > 100 µM |  | > 100 µM | > 100 µM | > 100 µM | > 100 µM |  |  |  |
